Test results reported in US10316049B2, “Tank-binding kinase inhibitor compounds” (Gilead Sciences, Inc., priority 2015, dated 2019).

Tests used:
IKKε = target: T1, IKKε (Homo sapiens, UniProt Q14164); test: TR-FRET enzymatic activity assay, IKKε; format: biochemical; details: read-out: IKKϵ IC50; also: full length recombinant IKKε at 0.3 nM
T1 construct: TBK1 and IKKε were expressed and purified as full length recombinant proteins; made in house
T1 sequence (Q14164 1-716): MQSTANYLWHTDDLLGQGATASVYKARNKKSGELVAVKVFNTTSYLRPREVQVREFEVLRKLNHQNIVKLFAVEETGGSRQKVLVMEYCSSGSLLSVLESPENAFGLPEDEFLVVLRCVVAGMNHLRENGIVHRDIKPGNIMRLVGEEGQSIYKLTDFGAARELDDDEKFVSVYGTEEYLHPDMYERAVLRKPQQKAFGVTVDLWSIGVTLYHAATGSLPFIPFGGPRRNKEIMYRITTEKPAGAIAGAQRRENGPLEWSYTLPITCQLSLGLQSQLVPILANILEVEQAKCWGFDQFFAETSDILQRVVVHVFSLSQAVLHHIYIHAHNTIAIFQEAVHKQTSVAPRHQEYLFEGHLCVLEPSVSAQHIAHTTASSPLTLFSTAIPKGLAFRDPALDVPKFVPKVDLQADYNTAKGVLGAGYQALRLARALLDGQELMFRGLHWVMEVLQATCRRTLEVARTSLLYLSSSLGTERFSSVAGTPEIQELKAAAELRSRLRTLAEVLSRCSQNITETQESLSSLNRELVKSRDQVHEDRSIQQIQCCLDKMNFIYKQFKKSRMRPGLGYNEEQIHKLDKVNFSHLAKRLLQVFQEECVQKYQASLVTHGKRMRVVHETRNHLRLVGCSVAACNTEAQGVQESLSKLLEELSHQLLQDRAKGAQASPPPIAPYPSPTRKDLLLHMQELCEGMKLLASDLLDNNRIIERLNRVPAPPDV
Procedure: (§1) Biological Assay for TBK1 and IKKε:
Enzymatic activity of IKKε and TBK1 was measured using a homogeneous time resolved fluorescence resonance energy transfer (TR-FRET) assay that monitors enzyme dependent phosphorylation of a biotinylated serine/threonine peptide substrate. […] TBK1 and IKKε were expressed and purified as full length recombinant proteins. Detection reagents for the assay were purchased from Cisbio. […] After an assay reaction time of 240 minutes at 25° C., reactions were terminated with EDTA.
(§2) Amount of phosphorylated peptide was determined by the addition of 125 nM streptavidin XL665 and europium cryptate labeled anti-phospho monoclonal antibody and the resulting TR-FRET signal was recorded on an Envision plate reader (Ex: 340 nm; Em: 615/665 nm; 100 μs delay and 200 μs read window). Data was normalized based on a positive (1 μM Staurosporine) and negative (DMSO) controls and IC50 values calculated from the fit of the dose-response curves to a four-parameter equation. All IC50 values represent geometric mean values of a minimum of four determinations.

TBK1 = target: T2, TBK1 (Homo sapiens, UniProt Q9UHD2); test: TR-FRET enzymatic activity assay, TBK1; format: biochemical; also: full length recombinant TBK1 at 2.5 nM
T2 construct: TBK1 and IKKε were expressed and purified as full length recombinant proteins; made in house
T2 sequence (Q9UHD2 1-729): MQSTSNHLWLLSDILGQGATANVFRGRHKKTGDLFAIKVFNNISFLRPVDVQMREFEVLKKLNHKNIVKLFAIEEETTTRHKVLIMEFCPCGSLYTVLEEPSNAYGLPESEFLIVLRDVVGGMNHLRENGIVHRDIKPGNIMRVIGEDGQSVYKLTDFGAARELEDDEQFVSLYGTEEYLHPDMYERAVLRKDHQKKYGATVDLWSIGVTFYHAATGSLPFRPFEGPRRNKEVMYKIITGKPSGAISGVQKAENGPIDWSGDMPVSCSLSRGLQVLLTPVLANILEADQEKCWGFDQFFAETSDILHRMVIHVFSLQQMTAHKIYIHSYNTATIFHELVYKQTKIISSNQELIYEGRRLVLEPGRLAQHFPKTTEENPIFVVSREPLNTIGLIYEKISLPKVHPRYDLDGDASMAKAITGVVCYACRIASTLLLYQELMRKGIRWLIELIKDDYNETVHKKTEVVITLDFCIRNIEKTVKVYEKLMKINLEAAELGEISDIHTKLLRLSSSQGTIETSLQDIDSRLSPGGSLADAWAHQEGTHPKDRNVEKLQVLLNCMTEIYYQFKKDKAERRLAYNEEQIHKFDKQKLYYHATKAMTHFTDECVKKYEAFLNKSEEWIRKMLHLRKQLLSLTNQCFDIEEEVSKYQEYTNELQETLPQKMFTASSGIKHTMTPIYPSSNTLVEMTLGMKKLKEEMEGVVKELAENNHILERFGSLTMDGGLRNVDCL
Procedure: as §1
Enzymatic activity of IKKε and TBK1 was measured using a homogeneous time resolved fluorescence resonance energy transfer (TR-FRET) assay that monitors enzyme dependent phosphorylation of a biotinylated serine/threonine peptide substrate. An increase in the amount of phosphorylated peptide results in an increase in TR-FRET signal. TBK1 and IKKε were expressed and purified as full length recombinant proteins. Detection reagents for the assay were purchased from Cisbio. […] After an assay reaction time of 240 minutes at 25° C., reactions were terminated with EDTA.
as §2, with “determinations. These assays generally produced results within 3-fold of the reported mean.” for “determinations.”

Compound	IC50 (IKKε)	IC50 (TBK1)
N#Cc1cc(-c2ccnc(NC(=O)C3CCC3)c2)ccc1OC1CCOCC1 [Example 3, N-(4-(3-cyano-4-((tetrahydro-2H-pyran-4-yl)oxy)phenyl)pyridin-2-yl)cyclobutanecarboxamide]	284 nM	335 nM
N#Cc1cc(-c2cc(NC(=O)C3CC3)ncn2)ccc1O[C@H]1CCNCC1(F)F [Example 25, (S)—N-(6-(3-cyano-4-((3,3-difluoropiperidin-4-yl)oxy)phenyl)pyrimidin-4-yl)cyclopropanecarboxamide]	297 nM	93.3 nM
N#Cc1cc(-c2cc(NC(=O)C3CC3)ncn2)ccc1O[C@H]1CCN(C(=O)c2nnc[nH]2)CC1(F)F [Example 32, (S)—N-(6-(3-cyano-4-((3,3-difluoro-1-(4H-1,2,4-triazole-3-carbonyl)piperidin-4-yl)oxy)phenyl)pyrimidin-4-yl)cyclopropanecarboxamide]	7.1 nM	5.6 nM
N#Cc1cc(-c2ccnc(NC(=O)[C@@H]3C[C@@H]3C(N)=O)c2)ccc1O[C@H]1CCN(C(=O)CO)C[C@H]1F (stereo in doubt) [Example 82, (1,2-cis)-N1-(4-(3-cyano-4-(((3R,4S)-3-fluoro-1-(2-hydroxyacetyl)piperidin-4-yl)oxy)phenyl)pyridin-2-yl)cyclopropane-1,2-dicarboxamide]	857 nM	607 nM
C[C@H](N)C(=O)OCC(=O)N1CC[C@H](Oc2ccc(-c3cc(NC(=O)C4CC4)ncn3)cc2C#N)C(F)(F)C1 [Example 159, 2-((S)-4-(2-cyano-4-(6-(cyclopropanecarboxamido)pyrimidin-4-yl)phenoxy)-3,3-difluoropiperidin-1-yl)-2-oxoethyl L-Alaninate]	39.3 nM	12.8 nM
Cn1ccnc1[C@@H]1C[C@H]1C(=O)Nc1cc(-c2ccc(O[C@H]3CCN(C(=O)CO)CC3(F)F)c(C#N)c2)ncn1 [Example 114, (1R,2R)—N-(6-(3-cyano-4-(((S)-3,3-difluoro-1-(2-hydroxyacetyl)piperidin-4-yl)oxy)phenyl)pyrimidin-4-yl)-2-(1-methyl-1H-imidazol-2-yl)cyclopropane-1-carboxamide]	36 nM	181 nM
N#Cc1cc(-c2ccnc(NC(=O)C3CC3c3c[nH]cn3)c2)ccc1O[C@H]1CCN(C(=O)CO)C[C@H]1F (stereo partly drawn) [Example 81, N-(4-(3-Cyano-4-(((3R,4S)-3-fluoro-1-(2-hydroxyacetyl)piperidin-4-yl)oxy)phenyl)pyridin-2-yl)-2-(1H-imidazol-4-yl)cyclopropane-1-carboxamide]	47 nM	18.8 nM
N#Cc1cc(-c2ccnc(NC(=O)C3CC3C#N)c2)ccc1O[C@H]1CCN(C(=O)CO)C[C@H]1F (stereo partly drawn) [Example 67, 2-Cyano-N-(4-(3-cyano-4-(((3R,4S)-3-fluoro-1-(2-hydroxyacetyl)piperidin-4-yl)oxy)phenyl)pyridin-2-yl)cyclopropane-1-carboxamide]	68.4 nM	26.1 nM
N#Cc1cc(-c2cc(NC(=O)C3CC3)ncn2)ccc1O[C@H]1CCN(C(=O)[C@@H]2CCC(=O)N2)CC1(F)F [Example 152, N-(6-(3-cyano-4-(((S)-3,3-difluoro-1-((S)-5-oxopyrrolidine-2-carbonyl)piperidin-4-yl)oxy)phenyl)pyrimidin-4-yl)cyclopropanecarboxamide]	53.3 nM	9.4 nM
N#Cc1cc(-c2ccnc(NC(=O)[C@H]3C[C@@H]3c3ccc(OC(F)(F)F)cc3)c2)ccc1OC1CCOCC1 (relative stereo) [Example 99, (1,2-trans)-N-(4-(3-cyano-4-((tetrahydro-2H-pyran-4-yl)oxy)phenyl)pyridin-2-yl)-2-(4-(trifluoromethoxy)phenyl)cyclopropane-1-carboxamide]	> 1000 nM	> 1000 nM
N#Cc1cc(-c2ccnc(NC(=O)[C@H]3C[C@@H]3c3cccnc3)c2)ccc1O[C@H]1CCN(C(=O)CO)C[C@H]1F [Example 136, (1S,2S)—N-(4-(3-cyano-4-(((3R,4S)-3-fluoro-1-(2-hydroxyacetyl)piperidin-4-yl)oxy)phenyl)pyridin-2-yl)-2-(pyridin-3-yl)cyclopropane-1-carboxamide]	10.4 nM	3.5 nM

Results, then the compound that gave them:

IC50 (IKKε)	IC50 (TBK1)	Compound
48.2 nM	62.1 nM	N#Cc1cc(-c2ccnc(NC(=O)[C@@H]3C[C@H]3CO)c2)ccc1OC1CCOCC1 (relative stereo) [Example 42, (1,2-trans)-N-(4-(3-cyano-4-((tetrahydro-2H-pyran-4-yl)oxy)phenyl)pyridin-2-yl)-2-(hydroxymethyl)cyclopropane-1-carboxamide]
777 nM	426 nM	N#Cc1cc(-c2ccnc(NC(=O)[C@@H]3C[C@H]3c3ccccc3)c2)ccc1OC1CCOCC1 [Example 87, (1R,2R)—N-(4-(3-cyano-4-((tetrahydro-2H-pyran-4-yl)oxy)phenyl)pyridin-2-yl)-2-phenylcyclopropane-1-carboxamide]
387 nM	41.5 nM	N#Cc1cc(-c2cc(NC(=O)C3CC3)ncn2)ccc1O[C@H]1CCN(C(=O)CCO)CC1(F)F [Example 154, (S)—N-(6-(3-cyano-4-((3,3-difluoro-1-(3-hydroxypropanoyl)piperidin-4-yl)oxy)phenyl)pyrimidin-4-yl)cyclopropanecarboxamide]
9 nM	2.8 nM	N#Cc1cc(-c2cc(NC(=O)C3CC3)ncn2)ccc1O[C@H]1CCN(C(=O)[C@@H](O)CO)CC1(F)F [Example 22, N-(6-(3-cyano-4-(((S)-1-((S)-2,3-dihydroxypropanoyl)-3,3-difluoropiperidin-4-yl)oxy)phenyl)pyrimidin-4-yl)cyclopropanecarboxamide]
535 nM	230 nM	CCOC(=O)[C@@H]1C[C@H]1C(=O)Nc1cc(-c2ccc(OC3CCOCC3)c(C#N)c2)ccn1 (relative stereo) [Example 50, Ethyl trans-2-((4-(3-cyano-4-((tetrahydro-2H-pyran-4-yl)oxy)phenyl)pyridin-2-yl)carbamoyl)cyclopropane-1-carboxylate]
68.2 nM	13.9 nM	N#Cc1cc(-c2ccnc(NC(=O)C3CC3)c2)ccc1N1CCCC1 [Example 5, N-(4-(3-cyano-4-(pyrrolidin-1-yl)phenyl)pyridin-2-yl)cyclopropanecarboxamide]
> 1000 nM	> 1000 nM	N#Cc1cc(-c2ccnc(NC(=O)C3(C#N)CC3)c2)ccc1O[C@H]1CCN(C(=O)CO)C[C@H]1F [Example 63, 1-Cyano-N-(4-(3-cyano-4-(((3R,4S)-3-fluoro-1-(2-hydroxyacetyl)piperidin-4-yl)oxy)phenyl)pyridin-2-yl)cyclopropane-1-carboxamide]
